# Measurements published in US6638953B2, “Indole derivatives as 5-HT receptor antagonist” (SmithKline Beecham p.l.c., priority 1995, dated 2003).
# Structures can show the parent of a compound that is named as a salt.
# How the values were obtained:
# [1] = system: MCPP-induced Hypolocomotion; experiment: Reversal of MCPP-induced hypolocomotion; type: in vivo; details: po, procedure of WO 94/04533, read-out: ID50 (the source's name)
# Description: Reversal of MCPP-induced Hypolocomotion
SMILES,melting point [°C],ED50 [1] [mg/kg]
"COc1cc2c(cc1C(F)(F)F)N(C(=O)Nc1ccc(C)c(-c3cccnc3)c1)CC2 [Example 7, 1-[4-Methyl-3-(3-Pyridyl)phenylcarbamoyl]-5-methoxy-6-trifluoromethyl Indoline]",211 to 212,0.5 to 5.5
"CSc1cc2c(cc1C(F)(F)F)N(C(=O)Nc1ccc(C)c(-c3cccnc3)c1)CC2 [Example 24, 1-(4-Methyl-3-(pyrid-3-yl)phenylcarbamoyl)-5-thiomethyl-6-trifluoromethyl Indoline]",221 to 223,0.5 to 5.5
"COc1ccc(NC(=O)N2CCc3cc(OC)c(C(F)(F)F)cc32)cc1-c1cccnc1 [Example 31, 1-[4-Methoxy-3(pyrid-3-yl)phenylcarbamoyl]-5-methoxy-6-trifluoromethylindoline]",,0.5 to 5.5
"CSc1cc2c(cc1C(F)(F)F)N(C(=O)Nc1cc(F)cc(-c3cccnc3)c1)CC2 [Example 25, 1-(3-Fluoro-5-(pyrid-3-yl)phenylcarbamoyl)5-thiomethyl-6-trifluoromethyl-indoline Hydrochloride]",,0.5 to 5.5
"CSc1cc2c(cc1C(F)(F)F)N(C(=O)Nc1cccc(-c3cccnc3)c1)CC2 [Example 3, 1-[(3-Pyridyl)-3-phenyl Carbamoyl]-5-methylthio-6-trifluoromethyl Indoline]",208 to 210,0.5 to 5.5
"COc1cc2c(cc1C(F)(F)F)N(C(=O)Nc1cc(F)cc(-c3cccnc3)c1)CC2 [Example 8, 1-[3-Fluoro-5-(3-pyridyl)phenylcarbamoyl]-5-methoxy-6-trifluoromethyl Indoline]",,0.5 to 5.5
"COc1cc2c(cc1C(F)(F)F)N(C(=O)Nc1cc(F)cc(-c3cncnc3)c1)CC2 [Example 78, 1-[3-Fluoro-5-(pyrimidin-5-yl)phenylcarbamoyl]-5-methoxy-6-trifluoromethyl Indoline]",,0.5 to 5.5
"COc1cc2c(cc1C(F)(F)F)N(C(=O)Nc1cc(F)cc(-c3cnccc3C)c1)CC2 [Example 21, 1-(3-Fluoro5-(4-methyl-3-pyridyl)phenylcarbamoyl)-5-methoxy-6-trifluoromethylindoline]",191 to 195,0.5 to 5.5
"COc1cc2c(cc1C(F)(F)F)N(C(=O)Nc1ccc(Cl)c(-c3cnccc3C)c1)CC2 [Example 79, 1-(4-Chloro-3-(4-methyl-3-pyridyl)phenylcarbamoyl]-5-methoxy-6-trifluoromethylindoline]",,0.5 to 5.5
"COc1cc2c(cc1C(F)(F)F)N(C(=O)Nc1cc3c(c(-c4cccnc4)c1)OCC3)CC2 [Example 80, 1-[2,3-Dihydro-7-(pyrid-3-yl)benzofuran-5-ylcarbamoyl]-5-methoxy-6-trifluoromethyl Indoline]",,0.5 to 5.5
"COc1cc2c(cc1C(F)(F)F)N(C(=O)Nc1cccc(-c3cncnc3)c1)CC2 [Example 40, 1-[3-(5-Pyrimidyl)phenylcarbamoyl]-5-methoxy-6-trifluoromethyl-indoline]",,0.5 to 5.5

# Now from value to compound, other results behind:
melting point [°C],SMILES,ED50 [1] [mg/kg]
205 to 207,"COc1cc2c(cc1C(F)(F)F)N(C(=O)Nc1ccc(OCc3ccncc3)cc1)CC2 [Example 54, 5-Methoxy-6-trifluoromethyl-1-[4-(pyridin-4-ylmethyloxy)phenyl Carbamoyl]indoline]",0.5 to 5.5
187 to 189,"COc1cc2c(cc1C(F)(F)F)N(C(=O)Nc1ccc(OCc3ccncc3)nc1)CC2 [Example 55, 5-Methoxy-6-trifluoromethyl-1-[6-(pyridin-4-ylmethyloxy)pyridin-3-ylcarbamoyl]indoline]",0.5 to 5.5
210 to 212,"COc1cc2c(cc1C(F)(F)F)N(C(=O)Nc1ccc(F)c(-c3cccnc3)c1)CC2 [Example 77, 1-[4-Fluoro-3-(3-pyridyl)phenylcarbamoyl]-5-methoxy-6-trifluoromethyl Indoline]",0.5 to 5.5
227 to 230,"COc1cc2c(cc1C(F)(F)F)N(C(=O)Nc1ccc(Oc3cccnc3C)nc1)CC2 [Example 81, 5-Methoxy-6-trifluoromethyl-1-[6-(2-methylpyridin-3-yloxy)pyridin-3-ylcarbamoyl]indoline]",0.5 to 5.5
210 to 213,"COc1cc2c(cc1C(F)(F)F)N(C(=O)Nc1ccc(Cl)c(-c3cccnc3)c1)CC2 [Example 26, 1-(4-Chloro-3-(pyrid-3-yl)phenylcarbamoyl)-5-methoxy-6-trifluoromethylindoline]",0.5 to 5.5
205 to 207,"CCc1cc(NC(=O)N2CCc3cc(OC)c(C(F)(F)F)cc32)cc(-c2cccnc2)c1 [Example 42, 1-[5-Ethyl-3-(pyrid-3-yl)phenylcarbamoyl]-5-methoxy-6-trifluoromethylindoline]",0.5 to 5.5
202 to 204,"COc1cc2c(cc1C(F)(F)F)N(C(=O)Nc1ccc(Oc3cccnc3)nc1)CC2 [Example 53, 5-Methoxy-6-trifluoromethyl-1-[6(pyridin-3-yloxy)pyridin-3-ylcarbamoyl]indoline]",0.5 to 5.5
193 to 194,CSc1cc2c(cc1C(F)(F)F)N(C(=O)Nc1ccc(Oc3cccnc3)nc1)CC2 [Example 52],0.5 to 5.5
